Results reported in ChEMBL document CHEMBL3046557, “Synthesis, biological evaluation, and molecular modeling studies of novel heterocyclic compounds as anti-proliferative agents” (2013).

Key:
Assay type in all cases: functional
NCI-H522 = assay: Cytotoxicity against human NCI-H522 after 48 hrs by SRB assay; settings: NCI-H522, 48 h
NCI-H322M = assay: Cytotoxicity against human NCI-H322M after 48 hrs by SRB assay
NCI-H226 = assay: Cytotoxicity against human NCI-H226 after 48 hrs by SRB assay; settings: NCI-H226, 48 h
NCI-H23 = assay: Cytotoxicity against human NCI-H23 after 48 hrs by SRB assay; settings: NCI-H23, 48 h
HOP-62 = assay: Cytotoxicity against human HOP62 after 48 hrs by SRB assay; settings: HOP-62, 48 h
HOP-92 = assay: Cytotoxicity against human HOP92 after 48 hrs by SRB assay; settings: HOP-92, 48 h
EKVX = assay: Cytotoxicity against human EKVX after 48 hrs by SRB assay
A549 = assay: Cytotoxicity against human A549 after 48 hrs by SRB assay; settings: A549, 48 h
SR = assay: Cytotoxicity against human SR after 48 hrs by SRB assay
RPMI-8226 = assay: Cytotoxicity against human RPMI8226 after 48 hrs by SRB assay; settings: RPMI-8226, 48 h
MOLT-4 = assay: Cytotoxicity against human MOLT4 after 48 hrs by SRB assay; settings: MOLT-4, 48 h
K562 = assay: Cytotoxicity against human K562 after 48 hrs by SRB assay; settings: K562, 48 h
CCRF-CEM = assay: Cytotoxicity against human CCRF-CEM after 48 hrs by SRB assay
BT-549 = assay: Cytotoxicity against human BT549 after 48 hrs by SRB assay; settings: BT-549, 48 h
T47D = assay: Cytotoxicity against human T47D after 48 hrs by SRB assay
Hs-578T = assay: Cytotoxicity against human Hs 578T after 48 hrs by SRB assay
MCF7 = assay: Cytotoxicity against human MCF7 after 48 hrs by SRB assay; settings: MCF7, 48 h
MDA-MB-231 = assay: Cytotoxicity against human MDA-MB-231 after 48 hrs by SRB assay; settings: MDA-MB-231, 48 h
OVCAR-5 = assay: Cytotoxicity against human OVCAR5 after 48 hrs by SRB assay; settings: OVCAR-5, 48 h
OVCAR-3 = assay: Cytotoxicity against human OVCAR3 after 48 hrs by SRB assay; settings: OVCAR-3, 48 h
OVCAR-4 = assay: Cytotoxicity against human OVCAR4 after 48 hrs by SRB assay; settings: OVCAR-4, 48 h
UACC-257 = assay: Cytotoxicity against human UACC257 after 48 hrs by SRB assay; settings: UACC-257, 48 h
UACC-62 = assay: Cytotoxicity against human UACC62 after 48 hrs by SRB assay; settings: UACC-62, 48 h
SK-MEL-5 = assay: Cytotoxicity against human SK-MEL-5 after 48 hrs by SRB assay; settings: SK-MEL-5, 48 h
SK-MEL-2 = assay: Cytotoxicity against human SK-MEL-2 after 48 hrs by SRB assay; settings: SK-MEL-2, 48 h
SK-MEL-28 = assay: Cytotoxicity against human SK-MEL-28 after 48 hrs by SRB assay; settings: SK-MEL-28, 48 h
MDA-MB-435 = assay: Cytotoxicity against human MDA-MB-435 after 48 hrs by SRB assay; settings: MDA-MB-435, 48 h
M14 = assay: Cytotoxicity against human M14 after 48 hrs by SRB assay; settings: M14, 48 h
Malme-3M = assay: Cytotoxicity against human MALME-3M after 48 hrs by SRB assay
LOX IMVI = assay: Cytotoxicity against human LOXIMVI after 48 hrs by SRB assay
SNB-75 = assay: Cytotoxicity against human SNB75 after 48 hrs by SRB assay; settings: SNB-75, 48 h
U-251 = assay: Cytotoxicity against human U251 after 48 hrs by SRB assay; settings: U-251, 48 h
SNB-19 = assay: Cytotoxicity against human SNB19 after 48 hrs by SRB assay; settings: SNB-19, 48 h
SF-539 = assay: Cytotoxicity against human SF539 after 48 hrs by SRB assay; settings: SF-539, 48 h
SF-295 = assay: Cytotoxicity against human SF295 after 48 hrs by SRB assay; settings: SF-295, 48 h
SF-268 = assay: Cytotoxicity against human SF268 after 48 hrs by SRB assay; settings: SF-268, 48 h
SW-620 = assay: Cytotoxicity against human SW620 after 48 hrs by SRB assay; settings: SW-620, 48 h
KM12 = assay: Cytotoxicity against human KM12 after 48 hrs by SRB assay; settings: KM12, 48 h
HT-29 = assay: Cytotoxicity against human HT-29 after 48 hrs by SRB assay; settings: HT-29, 48 h
HCT-116 = assay: Cytotoxicity against human HCT116 after 48 hrs by SRB assay; settings: HCT-116, 48 h
HCT-15 = assay: Cytotoxicity against human HCT15 after 48 hrs by SRB assay; settings: HCT-15, 48 h
HCC 2998 = assay: Cytotoxicity against human HCC2998 after 48 hrs by SRB assay; settings: HCC 2998, 48 h
COLO 205 = assay: Cytotoxicity against human COLO205 after 48 hrs by SRB assay; settings: COLO 205, 48 h
NCI-H460 = assay: Cytotoxicity against human NCI-H460 after 48 hrs by SRB assay; settings: NCI-H460, 48 h
PC-3 = assay: Cytotoxicity against human PC3 after 48 hrs by SRB assay; settings: PC-3, 48 h
DU-145 = assay: Cytotoxicity against human DU145 after 48 hrs by SRB assay; settings: DU-145, 48 h
TK-10 = assay: Cytotoxicity against human TK10 after 48 hrs by SRB assay; settings: TK-10, 48 h
UO-31 = assay: Cytotoxicity against human UO31 after 48 hrs by SRB assay; settings: UO-31, 48 h
SN12C = assay: Cytotoxicity against human SN12C after 48 hrs by SRB assay
CAKI-1 = assay: Cytotoxicity against human Caki1 after 48 hrs by SRB assay; settings: CAKI-1, 48 h
RXF 393 = assay: Cytotoxicity against human RXF393 after 48 hrs by SRB assay; settings: RXF 393, 48 h
786-0 = assay: Cytotoxicity against human 786-0 after 48 hrs by SRB assay; settings: 786-0, 48 h
ACHN = assay: Cytotoxicity against human ACHN after 48 hrs by SRB assay
SK-OV-3 = assay: Cytotoxicity against human SKOV3 after 48 hrs by SRB assay; settings: SK-OV-3, 48 h
OVCAR-8 = assay: Cytotoxicity against human OVCAR8 after 48 hrs by SRB assay; settings: OVCAR-8, 48 h
[1] = Cytotoxicity against human NCI-ADR-RES after 48 hrs by SRB assay

## CC12CCC(C(CN3C(=O)C(=O)c4ccccc43)C1=O)C2(C)C (configuration not stated)
NCI-H522
  GI50: 13.5 µM
  TGI: 29.4 µM
NCI-H322M
  GI50: 23.4 µM
  TGI: 38.3 µM
NCI-H226
  GI50: 21.8 µM
  TGI: 61 µM
NCI-H23
  GI50: 14.5 µM
  TGI: 29.6 µM
HOP-62
  GI50: 15.6 µM
  TGI: 30.1 µM
HOP-92
  GI50: 17.9 µM
  TGI: 38.3 µM
EKVX
  GI50: 19.6 µM
  TGI: 37.9 µM
A549
  GI50: 16.9 µM
  TGI: 32.9 µM
SR
  GI50: 1.53 µM
  TGI: 4.02 µM
RPMI-8226
  GI50: 3.22 µM
  TGI: 17.2 µM
MOLT-4
  GI50: 3.51 µM
  TGI: 10.6 µM
K562
  GI50: 2.46 µM
  TGI: 8.2 µM
CCRF-CEM
  GI50: 7.46 µM
  TGI: 28.6 µM
BT-549
  GI50: 12.3 µM
  TGI: 24.8 µM
T47D
  GI50: 20.6 µM
  TGI: 46.7 µM
Hs-578T
  GI50: 13.8 µM
  TGI: 32.6 µM
MCF7
  GI50: 5.8 µM
  TGI: 24.6 µM
MDA-MB-231
  GI50: 15.1 µM
  TGI: 30 µM
OVCAR-5
  GI50: 14.8 µM
  TGI: 28.4 µM
OVCAR-3
  GI50: 15.6 µM
  TGI: 33.5 µM
OVCAR-4
  GI50: 18.8 µM
  TGI: 44.1 µM
UACC-257
  GI50: 13.9 µM
  TGI: 31.1 µM
UACC-62
  GI50: 16.2 µM
  TGI: 30.6 µM
SK-MEL-5
  GI50: 17.3 µM
  TGI: 33 µM
SK-MEL-2
  GI50: 19 µM
  TGI: 41.7 µM
SK-MEL-28
  GI50: 19.7 µM
  TGI: 39.5 µM
MDA-MB-435
  GI50: 15.6 µM
  TGI: 32.9 µM
M14
  GI50: 15.9 µM
  TGI: 33.5 µM
Malme-3M
  GI50: 26.9 µM
  TGI: 44.8 µM
LOX IMVI
  GI50: 10.4 µM
  TGI: 24.5 µM
SNB-75
  GI50: 17.1 µM
  TGI: 33.1 µM
U-251
  GI50: 15.4 µM
  TGI: 29.3 µM
SNB-19
  GI50: 13.8 µM
  TGI: 26.6 µM
SF-539
  GI50: 12.8 µM
  TGI: 25.8 µM
SF-295
  GI50: 11.1 µM
  TGI: 24.3 µM
SF-268
  GI50: 15.8 µM
  TGI: 36 µM
SW-620
  GI50: 3.21 µM
  TGI: 9.25 µM
KM12
  GI50: 4.12 µM
  TGI: 12.5 µM
HT-29
  GI50: 5.45 µM
  TGI: 20.4 µM
HCT-116
  GI50: 1.95 µM
  TGI: 3.76 µM
HCT-15
  GI50: 17.1 µM
  TGI: 34.7 µM
HCC 2998
  GI50: 13.5 µM
  TGI: 27.5 µM
COLO 205
  GI50: 12.6 µM
  TGI: 29.2 µM
NCI-H460
  GI50: 16.9 µM
  TGI: 36.5 µM
PC-3
  GI50: 11.9 µM
  TGI: 25.9 µM
DU-145
  GI50: 14.9 µM
  TGI: 28.1 µM
TK-10
  GI50: 14.8 µM
  TGI: 28.5 µM
UO-31
  GI50: 13.2 µM
  TGI: 26.2 µM
SN12C
  GI50: 15.3 µM
  TGI: 31.6 µM
CAKI-1
  GI50: 16.3 µM
  TGI: 31.3 µM
RXF 393
  GI50: 5.46 µM
  TGI: 16.9 µM
786-0
  GI50: 16.8 µM
  TGI: 30.8 µM
ACHN
  GI50: 16.2 µM
  TGI: 29.7 µM
SK-OV-3
  GI50: 14.8 µM
  TGI: 28.5 µM
OVCAR-8
  GI50: 2.86 µM
  TGI: 6.97 µM
[1]
  GI50: 12.7 µM
  TGI: 35.3 µM
